# Results as given in patent publication US20160244679A1, “SELECTIVE LIQUID-LIQUID EXTRACTION OF OXIDATIVE DESULFURIZATION REACTION PRODUCTS” (SAUDI ARABIAN OIL COMPANY, priority 2011, published 2016).
# How the values were obtained:
# Assay type in all cases: physicochemical
# [1] = Batch liquid-liquid extraction of oxidized model diesel with 50 W % aqueous acetic acid, gas chromatographic analysis (Example 1, Table 10A); conditions: for total extraction: two batch extractions, solvent-to-model diesel about 1:1, 23° C., 1 atmosphere; for co-extraction: after both extractions
# Procedure: (§1) A quantity of 100 mL of a model diesel feed formed of xylene, DBT, DBT sulfoxide and DBT sulfone (with a total sulfur content of 1635 ppmw) was oxidized by 30 W % aqueous hydrogen peroxide at a temperature of 37° C. and at a pressure of 1 atmosphere for a period of 70 minutes with solid ZnO catalyst (1.2 g) and a ratio of oxidant (H2O2) to organic sulfur of 4:1 in acetic acid, about 10 mL. After the sold catalyst settled, the model diesel was removed for extraction of sulfoxidation products and removal of aqueous H2O2 using an embodiment of the selective solvent formulation of the present invention.
# DBT sulfoxide and DBT sulfone were extracted using a selective solvent formulation of 50 W % aqueous acetic acid. Two batch extractions were sequentially conducted using a solvent-to-model diesel ratio of about 1:1 at a temperature of 23° C. and at a pressure of 1 atmosphere for a period of 2 minutes, during which the contents were stirred. The total extraction of DBT sulfoxide and DBT sulfone was 95 W % and 55 W % respectively. Furthermore, the co-extraction of xylene was limited to 1.9 W % after both extractions, and the co-extraction of DBT (not oxidized) was limited to 13.2 W % after both extractions. The total sulfur measured by sulfur speciation (using an ANTEK Model 9000 analyzer commercially available from Antek Instruments, Inc., Houston, Tex. USA) determined that the overall sulfur content was reduced by 55 W % as shown at Table 10B.
# [2] = Batch liquid-liquid extraction of oxidized model diesel with 70 W % aqueous formic acid, gas chromatography (Example 2, Table 11A); conditions: for total extraction: two batch extractions, about 1:1, 23° C., 1 atmosphere
# Procedure: as §1
# A quantity of oxidized model diesel feed as used in Example 1 was subjected to extraction to remove DBT sulfoxide and DBT sulfone using a selective solvent formulation of 70 W % aqueous formic acid. Two batch extractions were sequentially conducted using a solvent to model diesel ratio of about 1:1 at a temperature of 23° C. and at a pressure of 1 atmosphere for a period of 2 minutes, during which the contents were stirred. The total extraction of DBT sulfoxide and DBT sulfone was 94 W % and 56 W % respectively. Furthermore, the co-extraction of xylene was limited to 2 W % after the first extraction, and increased by 3.8 W % after the second extraction, based on the normalization percentage of the peak regions for the GC analysis for each extraction. The normalization method is qualitative and quasi-quantitative, so that the peak area varies. The slight positive (3.8%) of xylene is due to the normalization of the sum of all peaks and it was changed by material balance variation and/or with measurement error.
# The co-extraction of DBT (not oxidized) was limited to 10 W % after both extractions. The total sulfur measured by sulfur speciation determined that the overall sulfur content was reduced by 56 W % as shown in Table 11B.
# [3] = Batch liquid-liquid extraction of oxidized model diesel with 50 W % aqueous methanol, gas chromatography (Example 3, Table 12A)
# Procedure: as §1
# A quantity of oxidized model diesel feed as used in Example 1 was subjected to extraction to remove DBT sulfoxide and DBT sulfone using a selective solvent formulation of 50 W % aqueous methanol. One extraction was conducted using a solvent to model diesel ratio of about 1:1 at a temperature of 23° C. and at a pressure of 1 atmosphere for a period of 2 minutes, during which the contents were stirred. The total extraction of DBT sulfoxide was 51.5 W %. […] The co-extraction of DBT (not oxidized) was limited to 3.1 W %. The total sulfur measured by sulfur speciation determined that the overall sulfur content was reduced by 16 W % as shown at Table 12B.
# [4] = 50 W % aqueous acetic acid, 2 minutes
# [5] = Model diesel oxidized, before extraction
# [6] = after 1st extraction, 50 W % aqueous acetic acid
# [7] = after 1st extraction, 50 W % aqueous acetic acid, solvent:diesel about 1:1, 23° C., 2 minutes
# [8] = after 2nd extraction, 50 W % aqueous acetic acid
# [9] = after 2nd extraction, 50 W % aqueous acetic acid, solvent:diesel about 1:1, 23° C., 2 minutes
# [10] = 70 W % aqueous formic acid, 2 minutes
# [11] = after 1st extraction, 70 W % aqueous formic acid
# [12] = after 1st extraction, 70 W % aqueous formic acid, solvent:diesel about 1:1, 23° C., 2 minutes
# [13] = after 2nd extraction, 70 W % aqueous formic acid
# [14] = after 2nd extraction, 70 W % aqueous formic acid, solvent:diesel about 1:1, 23° C., 2 minutes
# [15] = after 1st extraction, 50 W % aqueous methanol
# [16] = after 1st extraction, 50 W % aqueous methanol, solvent:diesel about 1:1, 23° C., 2 minutes
# [17] = 50 W % aqueous methanol, one extraction
Molecule,"total extraction [1, 4] [W %]","GC abundance in model diesel [1, 5] [abundance units]","change of GC abundance versus oxidized model diesel [1, 6]","GC abundance in model diesel [1, 7] [abundance units]","change of GC abundance versus oxidized model diesel [1, 8]","GC abundance in model diesel [1, 9] [abundance units]","total extraction [2, 10] [W %]","GC abundance in model diesel [2, 5] [abundance units]","change of GC abundance versus oxidized model diesel [2, 11]","GC abundance in model diesel [2, 12] [abundance units]","change of GC abundance versus oxidized model diesel [2, 13]","GC abundance in model diesel [2, 14] [abundance units]","GC abundance in model diesel [3, 5] [abundance units]","change of GC abundance versus oxidized model diesel [3, 15]","GC abundance in model diesel [3, 16] [abundance units]",co-extraction ([1]; 50 W % aqueous acetic acid) [W %],"co-extraction [3, 17]",other results
"O=S1(=O)c2ccccc2-c2ccccc21 [DBT sulfone, dibenzothiophene 5,5-dioxide]",55,25.09,(−23.7%),19.15,(−54.8%),11.39,56,25.09,(−30.4%),17.46,(−55.6%),11.14,25.09,(−2.4%),24.49,–,–,–
"[O-][s+]1c2ccccc2c2ccccc21 [DBT sulfoxide, dibenzothiophene 5-oxide]",95,24.02,(−67.5%),7.81,(−94.8%),1.26,94,24.02,(−73.1%),6.45,(−94%),1.38,24.02,(−51.5%),11.64,–,–,"total extraction ([3]; 50 W % aqueous methanol, one extraction, about 1:1, 23° C., 1 atmosphere, 2 minutes): 51.5 W %"
"c1ccc2c(c1)sc1ccccc12 [DBT, dibenzothiophene]",–,24.44,(−9.6%),22.09,(−13.2%),21.22,–,24.44,(−10.4%),21.89,(−10.0%),22,24.44,(−3.1%),23.69,13.2,3.1 W %,"co-extraction ([2]; 70 W % aqueous formic acid, after both extractions): 10 W %"
xylene,–,9283.7,(−1.4%),9155.2,(−1.9%),9108.19,–,9283.7,(−1.9%),9111.6,(+3.8%),9635.5,9283.7,+2.8%),9540.4,1.9,no co-extraction,"co-extraction ([2]; 70 W % aqueous formic acid, after the first extraction): 2 W %; increase after the second extraction (normalized GC peak) ([2]; 70 W % aqueous formic acid, after the second extraction): 3.8 W %; amount increased after extraction (normalized GC results) [3, 17]: 2.8 W %"
